According to patent US12391648B2, “Pyridyloxy thioester derivative and preparation method therefor, herbicidal composition, and application” (Qingdao Kingagroot Chemical Compound Co., Ltd., priority 2018, dated 2025):

Key:
Assay in all cases: Post-emergence test experiment (Table 3, 1000 g/ha)
Assay type in all cases: in vivo
Conditions in all cases: post-emergence spray, after 3 weeks, fresh weight inhibition
Galium spurium = test system: Galium spurium
From the text: (§1) The activity level standard of harmful plants destruction (i. e. growth inhibition rate) is as follows: • Level 5: the growth inhibition rate is greater than 85%; • Level 4: the growth inhibition rate is equal to or greater than 60% and less than 85%; • Level 3: the growth inhibition rate is equal to or greater than 40% and less than 60%; • Level 2: the growth inhibition rate is equal to or greater than 20% and less than 40%; • Level 1: the growth inhibition rate is equal to or greater than 5% and less than 20%; • Level 0: the growth inhibition rate is less than 5%;
(§2) The above described growth inhibition rate is fresh weight inhibition rate.
(§3) Post-emergence test experiment: Monocotyledonous and dicotyledonous weed seeds and main crop seeds (i. e. wheat, corn, rice, soybean, cotton, oilseed, millet and sorghum.) were put into a plastic pot loaded with soil. Then covered with 0.5-2 cm soil, the seeds were allowed to grow in good greenhouse environment. The test plants were treated at 2-3 leaf stage 2 weeks after sowing. The test compounds of the invention were dissolved with acetone respectively, then added with tween-80, and using 1.5 liters per hectare of an emulsible concentrate of methyl oleate as a synergist, and diluted by certain amount of water to certain concentration. The solution was sprayed to the plants with a sprayer. Then the plants were cultured for 3 weeks in the greenhouse, and the experiment result of weed controlling effect after 3 weeks was listed in tables 3-4.

Abutilon theophrasti = test system: Abutilon theophrasti
From the text: as §1, §2, §3

Leptochloa chinensis = test system: Leptochloa chinensis
From the text: as §1, §2, §3

Setaria viridis = test system: Setaria viridis
From the text: as §1, §2, §3

Digitaria sanguinalis = test system: Digitaria sanguinalis
From the text: as §1, §2, §3

Monochoria vaginalis = test system: Monochoria vaginalis
From the text: as §1, §2, §3

Row | SMILES | Activity level (growth inhibition rate) Galium spurium (Galium spurium) | Activity level (growth inhibition rate) Abutilon theophrasti (Abutilon theophrasti) | Activity level (growth inhibition rate) Leptochloa chinensis (Leptochloa chinensis) | Activity level (growth inhibition rate) Setaria viridis (Setaria viridis) | Activity level (growth inhibition rate) Digitaria sanguinalis (Digitaria sanguinalis) | Activity level (growth inhibition rate) Monochoria Vaginalis (Monochoria vaginalis)
1 | CCCCCCSC(=O)C(C)Oc1nc(F)c(Cl)c(N)c1Cl (stereo not drawn) [Compound 72] | 5 (Level 5: the growth inhibition rate is greater than 85%) | 5 (Level 5: the growth inhibition rate is greater than 85%) | 5 (Level 5: the growth inhibition rate is greater than 85%) | 5 (Level 5: the growth inhibition rate is greater than 85%) | 5 (Level 5: the growth inhibition rate is greater than 85%) | 5 (Level 5: the growth inhibition rate is greater than 85%)
2 | Cc1cn(C)nc1SC(=O)C(C)Oc1nc(F)c(Cl)c(N)c1Cl (stereo not drawn) [Compound 119] | 5 (Level 5: the growth inhibition rate is greater than 85%) | 5 (Level 5: the growth inhibition rate is greater than 85%) | 5 (Level 5: the growth inhibition rate is greater than 85%) | 5 (Level 5: the growth inhibition rate is greater than 85%) | 5 (Level 5: the growth inhibition rate is greater than 85%) | 5 (Level 5: the growth inhibition rate is greater than 85%)
3 | CC(Oc1nc(F)c(Cl)c(N)c1Cl)C(=O)SCC(=O)N(C)C (stereo not drawn) [Compound 99] | 5 (Level 5: the growth inhibition rate is greater than 85%) | 5 (Level 5: the growth inhibition rate is greater than 85%) | 5 (Level 5: the growth inhibition rate is greater than 85%) | 5 (Level 5: the growth inhibition rate is greater than 85%) | 5 (Level 5: the growth inhibition rate is greater than 85%) | 5 (Level 5: the growth inhibition rate is greater than 85%)
4 | C=CCOC(=O)C(C)(C)SC(=O)C(C)Oc1nc(F)c(Cl)c(N)c1Cl (stereo not drawn) [Compound 96] | 5 (Level 5: the growth inhibition rate is greater than 85%) | 5 (Level 5: the growth inhibition rate is greater than 85%) | 5 (Level 5: the growth inhibition rate is greater than 85%) | 5 (Level 5: the growth inhibition rate is greater than 85%) | 5 (Level 5: the growth inhibition rate is greater than 85%) | 5 (Level 5: the growth inhibition rate is greater than 85%)
5 | CCSC(=O)C(C)Oc1ncc(Cl)c(N)c1C(F)(F)F (stereo not drawn) [Compound 16] | 5 (Level 5: the growth inhibition rate is greater than 85%) | 5 (Level 5: the growth inhibition rate is greater than 85%) | 5 (Level 5: the growth inhibition rate is greater than 85%) | 5 (Level 5: the growth inhibition rate is greater than 85%) | 5 (Level 5: the growth inhibition rate is greater than 85%) | 5 (Level 5: the growth inhibition rate is greater than 85%)
6 | CC(Oc1nc(F)c(Cl)c(N)c1Cl)C(=O)SCC#N (stereo not drawn) [Compound 155] | 5 (Level 5: the growth inhibition rate is greater than 85%) | 5 (Level 5: the growth inhibition rate is greater than 85%) | 5 (Level 5: the growth inhibition rate is greater than 85%) | 5 (Level 5: the growth inhibition rate is greater than 85%) | 5 (Level 5: the growth inhibition rate is greater than 85%) | 5 (Level 5: the growth inhibition rate is greater than 85%)
7 | CC(Oc1nc(F)c(Cl)c(N)c1Cl)C(=O)Sc1ccc2ccccc2c1 (stereo not drawn) [Compound 114] | 5 (Level 5: the growth inhibition rate is greater than 85%) | 5 (Level 5: the growth inhibition rate is greater than 85%) | 5 (Level 5: the growth inhibition rate is greater than 85%) | 5 (Level 5: the growth inhibition rate is greater than 85%) | 5 (Level 5: the growth inhibition rate is greater than 85%) | 5 (Level 5: the growth inhibition rate is greater than 85%)
8 | CC(Oc1nc(F)c(Cl)c(N)c1Cl)C(=O)SC(F)(F)F (stereo not drawn) [Compound 75] | 5 (Level 5: the growth inhibition rate is greater than 85%) | 5 (Level 5: the growth inhibition rate is greater than 85%) | 5 (Level 5: the growth inhibition rate is greater than 85%) | 5 (Level 5: the growth inhibition rate is greater than 85%) | 5 (Level 5: the growth inhibition rate is greater than 85%) | 5 (Level 5: the growth inhibition rate is greater than 85%)
9 | COC(=O)C(NC(=O)OC(C)(C)C)SC(=O)C(C)Oc1nc(F)c(Cl)c(N)c1Cl (stereo not drawn) [Compound 104] | 5 (Level 5: the growth inhibition rate is greater than 85%) | 5 (Level 5: the growth inhibition rate is greater than 85%) | 5 (Level 5: the growth inhibition rate is greater than 85%) | 5 (Level 5: the growth inhibition rate is greater than 85%) | 5 (Level 5: the growth inhibition rate is greater than 85%) | 5 (Level 5: the growth inhibition rate is greater than 85%)
10 | CC(Oc1nc(F)c(Cl)c(N)c1Cl)C(=O)SCC(F)(F)C(F)(F)F (stereo not drawn) [Compound 80] | 5 (Level 5: the growth inhibition rate is greater than 85%) | 5 (Level 5: the growth inhibition rate is greater than 85%) | 5 (Level 5: the growth inhibition rate is greater than 85%) | 5 (Level 5: the growth inhibition rate is greater than 85%) | 5 (Level 5: the growth inhibition rate is greater than 85%) | 5 (Level 5: the growth inhibition rate is greater than 85%)
11 | CC(Oc1nc(F)c(Cl)c(N)c1Cl)C(=O)Sc1ccc(C(F)(F)F)cc1 (stereo not drawn) [Compound 112] | 5 (Level 5: the growth inhibition rate is greater than 85%) | 5 (Level 5: the growth inhibition rate is greater than 85%) | 5 (Level 5: the growth inhibition rate is greater than 85%) | 5 (Level 5: the growth inhibition rate is greater than 85%) | 5 (Level 5: the growth inhibition rate is greater than 85%) | 5 (Level 5: the growth inhibition rate is greater than 85%)
12 | CSC(=O)C(C)Oc1nc(F)c(F)c(N)c1F (stereo not drawn) [Compound 1] | 5 (Level 5: the growth inhibition rate is greater than 85%) | 5 (Level 5: the growth inhibition rate is greater than 85%) | 5 (Level 5: the growth inhibition rate is greater than 85%) | 5 (Level 5: the growth inhibition rate is greater than 85%) | 5 (Level 5: the growth inhibition rate is greater than 85%) | 5 (Level 5: the growth inhibition rate is greater than 85%)
13 | CSC(=O)C(C)Oc1nc(F)c(Br)c(N)c1Br (stereo not drawn) [Compound 12] | 5 (Level 5: the growth inhibition rate is greater than 85%) | 5 (Level 5: the growth inhibition rate is greater than 85%) | 5 (Level 5: the growth inhibition rate is greater than 85%) | 5 (Level 5: the growth inhibition rate is greater than 85%) | 5 (Level 5: the growth inhibition rate is greater than 85%) | 5 (Level 5: the growth inhibition rate is greater than 85%)
